Reference: the supplement of paper PMC10307832

Key:
Experiment in all cases: relative viability (nuclei count vs DMSO), 5 days (fraction); higher = more cells survive
Phenformin = compound: N=C(N)NC(=N)NCCc1ccccc1 [Phenformin] (anchor plate); details: 250 µM
In short: (§1)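 MetaXpress counted nuclei in 4× images of lung cancer cell lines that had been fixed, permeabilised and Hoechst-stained in one step. Before that, cells in 1536-well plates were kept overnight at 37 °C, pinned with five √10-spaced library-drug doses on vehicle-anchored plates, and cultured 5 days without medium change. Viability takes treated-well nuclei over vehicle-well nuclei and uses the median across plates. Plates were accepted only at control CV below 25% and at least one doubling.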

Erlotinib = compound: C#Cc1cccc(Nc2ncnc3cc(OCCOC)c(OCCOC)cc23)c1 [Erlotinib]
In short: as §1

AT9283 = compound: O=C(Nc1c[nH]nc1-c1nc2ccc(CN3CCOCC3)cc2[nH]1)NC1CC1 [AT9283]
In short: as §1

Cell Line	relative viability (Phenformin)	relative viability (Erlotinib; 0.02 µM)	relative viability (Erlotinib; 0.2 µM)	relative viability (Erlotinib; 0.6325 µM)	relative viability (Erlotinib; 2 µM)	relative viability (AT9283; 0.003 µM)	relative viability (AT9283; 0.03 µM)	relative viability (AT9283; 0.09487 µM)	relative viability (AT9283; 0.3 µM)
CAL-12T	0.597	1	0.785	0.618	0.521	1.06	0.828	0.451	0.227
NCI-H1975	0.409	0.946	0.961	1.11	0.786	0.944	1.03	0.801	0.545
PC-3 [JPC-3]	0.469	0.945	0.636	0.459	0.407	1.03	0.961	0.868	0.498
NCI-H2228	0.318	0.959	1	1.07	0.871	1.08	0.769	0.33	0.187
HARA	0.46	1.04	0.707	0.823	0.466	0.859	0.446	0.166	0.171
ChaGo-K-1	0.514	0.977	1.05	1.04	0.903	0.849	0.91	0.451	0.396
NCI-H2347	0.421	1.03	1.06	0.987	0.952	1.16	1	0.597	0.514
NCI-H1793	0.401		0.521	0.63	0.455	0.858	1.03	0.39	0.321
LK-2	0.485	0.993	0.864	1.36		0.937	0.57	0.168	0.195
NCI-H358	0.359	1.01	0.631	0.547	0.308	0.863	0.2	0.192	0.158
EBC-1		0.977	0.988	0.978	0.897	0.969	0.289	0.164	0.165
COR-L23	0.43	1.09	1.04	1.22	0.894	1.05	0.592	0.206	0.183
NCI-H1792	0.343	0.875	0.821	0.92	0.742	0.887	0.886	0.943	0.376
NCI-H520	0.671	1.04	0.899	1.1	1.03	0.76	0.551	0.372	0.223
NCI-H3122	0.386	0.987		1	0.977	0.982	0.963	0.619	0.236
LXF-289	0.518	0.98	1.03	0.971	0.963	0.995	0.993	0.465	0.22
NCI-H2126	0.535	0.961	0.82	0.773	0.636	0.963	0.991	0.829	0.407
SK-MES-1	0.665	1.02	0.809	0.498	0.41	1.05	0.975	0.581	0.232
HOP-62	0.673	1.01	0.972	1.08	1.04	1	0.771	0.393	0.273
